The structures appear in SMILES notation. Structures can show the parent of a compound that is named as a salt.

Assay [1] has as its system synthesis of 5-HETE by rat glycogen elicited polymorphonuclear leukocytes. The experiment in a line: Inhibition of 5-HETE synthesis by rat glycogen-elicited polymorphonuclear leukocytes. Particulars: rat PMN. It counts as cell-based, rat (female Wistar). The procedure: The assay of this Example measures the ability of the compounds of the invention to inhibit the synthesis of 5 -HETE by rat glycogen elicited polymorphonuclear leukocytes.
(§1) The assay is carried out as follows:
Peritoneal PMN are obtained from female Wistar rats (150-250 g) that received an i.p. injection of 6% glycogen (10 ml). After 24 hours, rats are killed by CO2 asphyxiation and peritoneal cells are harvested by peritoneal lavage using Ca^++ and Mg^++ free Hanks' balanced salt solution (HBSS). The peritoneal exudate is centrifuged at 400 g for 10 minutes. After centrifugation, the lavaged fluid is removed and the cell pellet is resuspended in HBSS containing Ca^++ and Mg^++ and 10 mM L-cysteine at a concentration of 2×10^7 cells/ml. To 1 ml portions of cell suspension, test drugs or vehicle are added and incubated at 37° C. for 10 minutes. Following this preincubation, the calcium ionophore (10 μM), A23187, is added together with 0.5 μCi [^14 C] arachidonic acid and further incubated for 10 minutes. The reaction is stopped by the addition of ice cold water (3 ml) and acidifying to pH 3.5. Lipoxygenase products are then extracted twice into diethyl ether. The pooled ether extracts are evaporated to dryness under nitrogen and the residue is redissolved in a small volume of methanol and spotted on aluminum backed pre-coated thin layer chromatographic plates. The samples are then co-chromatographed with authentic reference 5-HETE in the solvent system--hexane:ether:acetic acid (50:50:3). After chromatography, the areas associated with 5-HETE standard are identified by autoradiography, cut out and quantitated by liquid scintillation.
The compounds of this invention are tested in this assay at a level of 50 μm, unless otherwise noted. The results are summarized in Table 1, where those compounds having an inhibition of >50% are designated by a "+". Some results are expressed as an IC50 value.

For assay [2], the system named is LTD4 induced bronchoconstriction. The assay can be described thus: In vivo inhibition of bronchospasm induced in guinea pigs by exogenously administered leukotrienes C4 and/or D4. Also noted: species or system guinea pig (male Hartley). Particulars: 10 minutes before induction of bronchospasm. Here is the method: The assay of this Example measures the in vivo ability of the compounds of the invention to inhibit the bronchospasm induced in guinea pigs by the exogenously administered leukotrienes C4 and/or D4.
This assay is carried out as follows:
Male Hartley strain guinea pigs (350-600 g) are anesthetized with pentobarbital sodium (50 mg/kg, i.p.). The jugular vein is cannulated for injection of drugs and the carotid artery for monitoring blood pressure. The trachea is cannulated for artificial ventilation by a miniature Starling pump and for indirect measurement of respiratory volume changes as described infra. The animals are then pretreated with succinylcholine (2 mg/kg i.v.) and indomethacin (10 mg/kg i.v. in trizma 8.3 buffer, 9 minutes prior to leukotriene challenge). Submaximal bronchoconstrictor responses are established in control animals by varying the dose-levels of leukotriene. Intravenous dose-levels for LTC4 range from 0.4 to 0.6 μg/kg and for LTD4 the range is from 0.3 to 0.5 μg/kg. The aerosol bronchoprovocation dose for LTC4 is generated from 1.6 μM solution and for LTD4 from a 2.0 μM solution.
Test drugs (dissolved in a solvent such as propylene glycol, polyethylene glycol 400 or saline) are administered either intraduodenally, by aerosol or intragastrically at 2 or 10 minutes before induction of bronchospasm by administration of either LTC4 or LTD4 at the predetermined dose-levels. Aerosols of soluble drugs or leukotrienes are produced in-line for 10 seconds only by actuation of an ultrasonic nebulizer (Monaghan). Aerosolized drug dosage is expressed in terms of solution concentration and by a fixed aerosol exposure time (approximately 10 seconds). Control animals receive solvent (2 ml/kg i.d. or appropriate aerosol) in place of drug.
Respiratory volume changes are determined by a calibrated piston whose travel is recorded, via a linear transducer, on a Beckman Dynograph recorder. Maximal bronchoconstrictor volume is determined by clamping off the trachea at the end of the experiment. Overflow volumes at 1, 3 and 5 minutes are obtained from the recorded charts.
Area under the volume overflow curve (AUC) is estimated, using the overflow values at 1, 3 and 5 minutes, and expressed as a percentage of the maximal overflow AUC (equation 1): [formula] Drug effects are reported as percent inhibition of % max AUC values obtained from appropriate control animals (equation 2): [formula]
Student's t-test for unpaired data is used to determine statistical significance (p<0.05). IC50 values can also be determined by inverse prediction from linear regression lines through points between 10 and 90% inhibition.

The subject of assay [3] is ovalbumin induced bronchospasm. The experiment in a line: In vivo inhibition of ovalbumin-induced bronchospasm mediated by endogenous mediators in sensitized guinea pigs. Particulars: 50 mg/kg intraduodenal, 10 minutes before ovalbumin challenge. Also noted: species or system guinea pig (male Hartley). Here is the method: The assay of this Example measures the in vivo ability of the compounds of the invention to inhibit the bronchospasm induced in guinea pigs by endogenous mediators of the bronchoconstriction.
as §1
Male Hartley strain guinea pigs weighing 250-350 g are sensitized to chicken ovalbumin (OA) (10 mg i.p.) on days 1 and 3 and used starting on day 26. The animals are anesthetized with pentobarbital sodium (50 mg/kg, i.p.), bilateral vagotomy is performed, and the jugular vein is cannulated for injection of drugs and the carotid artery for monitoring blood pressure. The trachea is cannulated for artificial ventilation by miniature Starling pump and for indirect measurement of respiratory volume changes as described, infra. Succinylcholine (2 mg/kg, i.v.) is administered to arrest spontaneous respiration. […]
Respiratory volume changes are determined by a calibrated piston whose travel is recorded, via a linear transducer, on a Beckman Dynograph recorder. Maximal bronchoconstrictor volume is determined by clamping off the trachea at the end of the experiment. Overflow volumes at minutes 1, 3 and 5 are obtained from the recorded charts.
Area under the volume overflow curve (AUC) is estimated, using the overflow values at 1, 3 and 5 minutes, and expressed as a percentage of the maximal overflow AUC (equation 1): [formula] […]

Usually IC50 stands for the concentration that inhibits the measured activity by half. Lower therefore signals greater potency. On to `CN1C[C@@H](c2cccc(OCc3ccc4ccccc4n3)c2)OC1=O` [Example 1, 5-[3-[(2-Quinolinyl)methoxy]phenyl]-3-methyl-2-oxazolidone], for which the IC50 in assay [1] (Leukocyte) stood at 19.6 µM. Also, the “>50% Inhibitory at 50 μm” value in assay [1] is listed as “+ (inhibition of >50%)”.
A word on the % Inhibition: it is the share of the control response that was lost under treatment. Low values mean little suppression, high ones strong suppression. Consider `CN1C[C@@H](c2cccc(OCc3ccc4ccccc4n3)c2)OC1=O` [Example 1 (as free base, R-enantiomer), 5-[3-[(2-Quinolinyl)methoxy]phenyl]-3-methyl-2-oxazolidone], for which the “% Inhibition” value in assay [2] (50 mg/kg, intraduodenally) turned out to be 91%; in assay [2] (50 mg/kg, intragastrically), 65%. For the same compound, the ED50 in assay [2] (Cavia porcellus, 10 min, printed on the intraduodenal line, read-out: IC50 (the source's name)) was 8.6 mg/kg.
For the compound `CN1CC(c2cccc(OCc3ccc4ccccc4n3)c2)OC1=S` (stereo not drawn) [Example 2, 5-[3-[(2-Quinolinyl)methoxy]phenyl]-3-methyl-2-thiaoxazolidone], the “>50% Inhibitory at 50 μm” value in assay [1] is “+ (inhibition of >50%)”.
Regarding `c1cc(OCc2ccc3ccccc3n2)cc(C2CN=C(c3cccs3)O2)c1` (stereo not drawn) [Example 7, 4,5-Dihydro-5-[3-[(2-quinolinyl)methoxy]phenyl]-2-(2-thienyl)-1,3-oxazole], the “% Inhibition” value in assay [2] (50 mg/kg, intraduodenally) was determined as 41%.
Still for that read-out and setting: with `CN1CC(c2cccc(OCc3nc4ccccc4n3C)c2)OC1=O` (stereo not drawn) [Example 4, 5-[3-[(1-Methyl-2-benzimidazoyl)]methoxy]phenyl-3-methyl-2-oxazolidone] the figure was 65%; with `CN1C[C@H](c2cccc(OCc3ccc4ccccc4n3)c2)OC1=O` [Example 1 (as free base, S-enantiomer), 5-[3-[(2-Quinolinyl)methoxy]phenyl]-3-methyl-2-oxazolidone], 99%.
With `CN1CC(c2cccc(OCc3ccc4ccccc4n3)c2)OC1=O` (stereo not drawn) [1 (as free base), 5-[3-[(2-Quinolinyl)methoxy]phenyl]-3-methyl-2-oxazolidone], the “% Inhibition of Max AUC” value in assay [3] is 69%.
Turning to `CCOC(=O)CC1=NCC(c2cccc(OCc3ccc4ccccc4n3)c2)O1` (stereo not drawn) [Example 8, 2-Ethoxycarbonylmethyl-4,5-dihydro-5-[3-[(2-quinolinyl)methoxy]phenyl]-1,3-oxazole], in assay [2] (25 mg/kg, intraduodenally), the “% Inhibition” value turned out to be 72%.
Take `CN1CC(c2cccc(OCc3ccc4ccccc4n3)c2)OC1=O` (stereo not drawn) [1 (as HCL salt), 5-[3-[(2-Quinolinyl)methoxy]phenyl]-3-methyl-2-oxazolidone]: the “% Inhibition” value was found to be 65% in assay [2] (50 mg/kg, intraduodenally) and 46% in assay [2] (50 mg/kg, intragastrically).
As for `c1ccc(C2=NCC(c3cccc(OCc4ccc5ccccc5n4)c3)O2)nc1` (stereo not drawn) [Example 6, 4,5-Dihydro-5-[3-[(2-quinolinyl)methoxy]phenyl]-2-(2-pyridyl)-1,3-oxazole], in assay [2] (25 mg/kg, intraduodenally), the “% Inhibition” value worked out at 96%.
The same measure, in the same setting: with `CCC1=NCC(c2cccc(OCc3ccc4ccccc4n3)c2)O1` (stereo not drawn) [Example 5, 2-Ethyl-4,5-dihydro-5-[3-[(2-quinolinyl)methoxy]phenyl]-1,3-oxazole] the figure was 77%.

The record behind these values is patent US4681940A, “5-[3-[[2-quinolyl]methoxy]phenyl]-1,3-oxazoles” (American Home Products Corporation, priority 1985, dated 1987).
